# Laboratory results: ChEMBL document CHEMBL1158138, “Cucurbitane triterpenes from the fruiting bodies and cultivated mycelia of Leucopaxillus gentianeus” (J Nat Prod, 2006)
# Active and inactive are the calls of the source. The calls are words filed in the database; no cut-off is given here.
# Tested on: NCI-H460
# Assay: Antiproliferative activity against human NCI-H460 cells after 72 hrs
# Format: functional, cell-based
# Details: NCI-H460, 72 h
row,Compound,IC50
1,CC(=O)O[C@H](C[C@@H](OC(C)=O)C(C)(C)O)[C@@H](C)[C@H]1[C@H](O)C[C@@]2(C)[C@@H]3CC=C4[C@@H](CCC(=O)C4(C)C)[C@]3(C)C(=O)C[C@]12C [18-DEOXYLEUCOPAXILLONE A],10.6 µg/mL
2,CC(=O)O[C@H](C[C@@H](OC(C)=O)C(C)(C)O)[C@@H](C)[C@H]1CC[C@@]2(C)[C@@H]3CC=C4[C@@H](CCC(=O)C4(C)C)[C@]3(C)[C@]3(O)C[C@]12CO3 [LEUCOPAXILLONE B],0.3 µg/mL
3,CC(=O)O[C@H](C[C@@H](OC(C)=O)C(C)(C)O)[C@@H](C)[C@H]1CC[C@@]2(C)[C@@H]3CC=C4[C@@H](CCC(=O)C4(C)C)[C@]3(C)CC[C@]12CO [LEUCOPAXILLONE A],3.5 µg/mL
4,CC(=O)OC(C)(C)/C=C/C(=O)[C@@](C)(O)[C@H]1CC[C@@]2(C)[C@@H]3CC=C4[C@@H](C[C@H](O)C(=O)C4(C)C)[C@]3(C)C(=O)C[C@]12C [16-DEOXYCUCURBITACIN B],0.06 µg/mL
5,CC(C)(O)/C=C/C(=O)[C@](C)(O)[C@H]1[C@H](O)C[C@@]2(C)[C@@H]3CC=C4[C@@H](C[C@H](O)C(=O)C4(C)C)[C@]3(C)C(=O)C[C@]12C [CUCURBITACIN D],0.12 µg/mL
6,CC[C@@]1(O)C(=O)OCc2c1cc1n(c2=O)Cc2cc3c(CN(C)C)c(O)ccc3nc2-1 [TOPOTECAN],0.008 µg/mL
7,CC(=O)OC(C)(C)/C=C/C(=O)[C@](C)(O)[C@H]1[C@H](O)C[C@@]2(C)[C@@H]3CC=C4[C@H](C[C@H](O)C(=O)C4(C)C)[C@]3(C)C(=O)C[C@]12C [CUCURBITACIN B],0.011 µg/mL

# Biological target: T1, DNA topoisomerase 1 (Homo sapiens) (UniProt P11387)
# T1 sequence (whole entry): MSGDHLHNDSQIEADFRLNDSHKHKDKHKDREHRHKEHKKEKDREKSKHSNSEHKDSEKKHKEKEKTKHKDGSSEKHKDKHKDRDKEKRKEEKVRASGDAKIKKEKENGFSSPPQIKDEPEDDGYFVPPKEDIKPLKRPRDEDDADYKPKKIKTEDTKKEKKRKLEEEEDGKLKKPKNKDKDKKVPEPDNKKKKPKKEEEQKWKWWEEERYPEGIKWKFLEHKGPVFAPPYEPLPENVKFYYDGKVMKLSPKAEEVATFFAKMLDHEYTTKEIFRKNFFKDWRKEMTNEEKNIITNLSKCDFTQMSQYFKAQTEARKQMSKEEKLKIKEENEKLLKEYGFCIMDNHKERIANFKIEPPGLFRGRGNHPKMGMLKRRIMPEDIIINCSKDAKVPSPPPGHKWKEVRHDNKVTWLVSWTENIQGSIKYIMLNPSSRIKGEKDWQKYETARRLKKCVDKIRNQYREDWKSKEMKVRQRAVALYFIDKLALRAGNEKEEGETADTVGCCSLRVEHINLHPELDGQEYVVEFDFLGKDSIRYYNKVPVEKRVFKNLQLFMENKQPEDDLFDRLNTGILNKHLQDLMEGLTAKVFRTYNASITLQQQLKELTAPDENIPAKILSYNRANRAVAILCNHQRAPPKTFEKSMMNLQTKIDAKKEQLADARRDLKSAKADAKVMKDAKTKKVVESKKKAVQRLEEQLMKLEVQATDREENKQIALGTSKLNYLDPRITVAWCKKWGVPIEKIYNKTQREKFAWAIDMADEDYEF
# Assay: Inhibition of topoisomerase 1-mediated SV40 DNA cleavage at 1 to 50 uM by gel electrophoresis
# Details: not given
row,Compound,Activity
1,CCc1c2c(nc3ccc(O)cc13)-c1cc3c(c(=O)n1C2)COC(=O)[C@]3(O)CC,Active
2,CC(=O)OC(C)(C)/C=C/C(=O)[C@](C)(O)[C@H]1[C@H](O)C[C@@]2(C)[C@@H]3CC=C4[C@H](C[C@H](O)C(=O)C4(C)C)[C@]3(C)C(=O)C[C@]12C [CUCURBITACIN B],Active
